Literature values, collected in patent US10478388B2, “Skin engaging shaving aid member comprising at least one thermally resilient sensate” (The Gillette Company, priority 2012, dated 2019).

Experiments:
[1] = concentration where the cooling effect could be clearly recognized
[2] = compared to menthol at 2 ppm

SMILES	Cooling threshold [1]	Cooling as compared to menthol [2]
CC(C)[C@@H]1CC[C@@H](C)C[C@@H]1O [Example 1-neomenthol, 1-neomenthol]	about 3,000 ppb	
CC(C)[C@@H]1CC[C@@H](C)C[C@@H]1O [d-neomenthol]	about 25,000 ppb	
CC(C)[C@@H]1CC[C@@H](C)C[C@H]1O [L-menthol]	about 800 ppb	
CC(C)[C@@H]1CC[C@@H](C)C[C@H]1C(=O)Nc1ccc(CC#N)cc1 [N-[4-(cyanomethyl)phenyl]-(1R,2S,5R)-2-isopropyl-5-methylcyclohexanecarboxamide]		about 10 ×
